Experimental data from US20150105252A1, “SUBSTITUTED PYRAZOLES AS HERBICIDES” (E I DU PONT DE NEMOURS AND COMPANY, priority 2013, published 2015).

Legend:
[1] = test system: pigweed; experiment: Test C postemergence; format: in vivo, Amaranthus retroflexus; conditions: for Plant response rating, Pigweed: postemergence
From the text: (§1) Seeds of plant species selected from blackgrass (Alopecurus myosuroides), ryegrass, Italian (Italian ryegrass, Lolium multiflorum), wheat (winter wheat, Triticum aestivum), galium (catchweed bedstraw, Galium aparine), corn (Zea mays), crabgrass, large (large crabgrass, Digitaria sanguinalis), foxtail, giant (giant foxtail, Setaria faberii), johnsongrass (Sorghum halepense), lambsquarters (Chenopodium album), morningglory (Ipomoea coccinea), nutsedge, yellow (yellow nutsedge, Cyperus esculentus), pigweed (redroot pigweed, Amaranthus retroflexus), ragweed (common ragweed, Ambrosia elation), soybean (Glycine max), barnyardgrass (Echinochloa crus-galli), oilseed rape (Brassica napus), waterhemp (common waterhemp, Amaranthus rudis), oat, wild (wild oat, Avena fatua), kochia (Kochia scoparia), Surinam grass (Brachiaria decumbens), foxtail, green (green foxtail, Setaria viridis), goosegrass (Eleusine indica), bromegrass, downy (downy bromegrass, Bromus tectorum), nightshade (eastern black nightshade, Solanum ptycanthum), cocklebur (common cocklebur, Xanthium strumarium), cupgrass, woolly (woolly cupgrass, Eriochloa villosa), bermudagrass (Cynodon dactylon), sunflower, (common oilseed sunflower, Helianthus annuus), Russian thistle (Salsola kali), and velvetleaf (Abutilon theophrasti) were planted into a blend of loam soil and sand and treated preemergence with test chemicals formulated in a non-phytotoxic solvent mixture which included a surfactant.
(§2) At the same time, plants selected from these crop and weed species and also chickweed (common chickweed, Stellaria media), canarygrass (littleseed canarygrass, Phalaris minor), and deadnettle (henbit deadnettle, Lamium amplexicaule), were planted in pots containing Redi-Earth® planting medium (Scotts Company, 14111 Scottslawn Road, Marysville, Ohio 43041) comprising spaghnum peat moss, vermiculite, wetting agent and starter nutrients and treated with postemergence applications of test chemicals formulated in the same manner. Plants ranged in height from 2 to 18 cm (1- to 4-leaf stage) for postemergence treatments. Treated plants and controls were maintained in a greenhouse for 13 to 15 days, after which time all species were compared to controls and visually evaluated. Plant response ratings, summarized in Table C, are based on a scale of 0 to 100 where 0 is no effect and 100 is complete control. A dash (-) response means no test result.

[2] = test system: foxtail, giant; experiment: Test A preemergence; format: in vivo, Setaria faberii; conditions: for Foxtail, Giant plant response rating (0 to 100 scale): visual injury approx. 10 days after treatment
Summary of the method: (§3)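 Greenhouse test in loam soil/sand blend; compounds formulated in non-phytotoxic solvent with surfactant, applied as preemergence directed soil spray or postemergence to plants 2–10 cm tall at one- to two-leaf stage. Injury rated visually versus untreated controls after approximately 10 days on a 0 (no effect) to 100 (complete control) scale.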

[3] = test system: corn; experiment: Test A postemergence; format: in vivo, Zea mays
Summary of the method: as §3

[4] = test system: ragweed; experiment: Test C postemergence; format: in vivo, Ambrosia elation; conditions: postemergence
From the text: as §1, §2

[5] = test system: soybean; experiment: Test C postemergence; format: in vivo, Glycine max; conditions: postemergence
From the text: as §1, §2

[6] = test system: pigweed; experiment: Test A preemergence; format: in vivo, Amaranthus retroflexus; conditions: for Pigweed plant response rating (0 to 100 scale): visual injury approx. 10 days after treatment
Summary of the method: as §3

[7] = test system: blackgrass; experiment: Test C postemergence; format: in vivo, Alopecurus myosuroides; conditions: for Plant response rating, Blackgrass: postemergence
From the text: as §1, §2

[8] = test system: wheat; experiment: Test C postemergence; format: in vivo, Triticum aestivum; conditions: postemergence
From the text: as §1, §2

[9] = test system: foxtail, giant; experiment: Test C postemergence; format: in vivo, Setaria faberii; conditions: for Plant response rating, Foxtail, Giant: postemergence
From the text: as §1, §2

[10] = test system: crabgrass, large; experiment: Test A postemergence; format: in vivo, Digitaria sanguinalis
Summary of the method: as §3

[11] = test system: pigweed; experiment: Test C preemergence; format: in vivo, Amaranthus retroflexus
From the text: as §1, §2

[12] = test system: johnsongrass; experiment: Test C preemergence; format: in vivo, Sorghum halepense
From the text: as §1, §2

[13] = test system: blackgrass; experiment: Test C preemergence; format: in vivo, Alopecurus myosuroides
From the text: as §1, §2

[14] = test system: galium; experiment: Test C preemergence; format: in vivo, Galium aparine
From the text: as §1, §2

[15] = Postemergence, 31 g ai/ha, scale 0 to 100
[16] = 250 g ai/ha, scale 0 to 100 (0 no effect, 100 complete control)
[17] = 62 g ai/ha, scale 0 to 100, 0 no effect, 100 complete control
[18] = 125 g ai/ha, scale 0 to 100, 0 no effect, 100 complete control
[19] = Preemergence, 1000 g ai/ha, 0 to 100 scale, 0 no effect, 100 complete control
[20] = Postemergence, 1000 g ai/ha, visual rating after approx. 10 days, 0 to 100 scale (0 no effect, 100 complete control)
[21] = Preemergence, 4 g ai/ha, scale 0 to 100
[22] = Preemergence, 8 g ai/ha, scale 0 to 100
[23] = Preemergence, 16 g ai/ha, scale 0 to 100
[24] = preemergence, 31 g ai/ha, visual rating, scale 0 to 100 (0 no effect, 100 complete control), 13 to 15 days
[25] = preemergence, 125 g ai/ha, visual injury, 0 to 100 scale, approx. 10 days
[26] = preemergence, 500 g ai/ha, visual injury after approx. 10 days, 0 to 100 scale (0 no effect, 100 complete control)
[27] = Postemergence, 500 g ai/ha, 0 to 100 scale (0 no effect, 100 complete control)
[28] = postemergence, 125 g ai/ha, about 10 days, visual rating on 0 to 100 scale (0 no effect, 100 complete control)
[29] = preemergence, 62 g ai/ha, scale 0 to 100 (0 no effect, 100 complete control), 13 to 15 days
[30] = preemergence, 125 g ai/ha, 13 to 15 days, scale 0 to 100, 0 = no effect, 100 = complete control
[31] = preemergence, 250 g ai/ha, scale 0 to 100, 0 is no effect, 100 is complete control

SMILES: CCc1cc(C(=O)NCC(F)(F)F)nn1Cc1cccc(OC(F)(F)F)c1 [Compound 20]
- Pigweed plant response rating [1, 15]: 60
- Plant response rating, Pigweed [1, 16]: 80
- Plant response rating, Pigweed [1, 17]: 75
- Plant response rating, Pigweed [1, 18]: 75
- Foxtail, Giant plant response rating [2, 19]: 100
- Corn plant response rating [3, 20]: 30
- Plant response rating, Ragweed [4, 16]: 25
- Plant response rating, Ragweed [4, 17]: 15
- Plant response rating, Ragweed [4, 18]: 15
- Soybean plant response rating ([5]; 62 g ai/ha, scale 0 to 100): 45
- Plant response rating, Soybean [5, 16]: 75
- Plant response rating, Soybean [5, 18]: 60
- Pigweed plant response rating [6, 19]: 100
- Blackgrass plant response rating [7, 15]: 5
- Plant response rating, Blackgrass [7, 16]: 20
- Plant response rating, Blackgrass [7, 17]: 5
- Plant response rating, Blackgrass [7, 18]: 15
- Wheat plant response rating ([8]; 62 g ai/ha, scale 0 to 100): 15
- Plant response rating, Wheat [8, 16]: 25
- Plant response rating, Wheat [8, 18]: 20
- Foxtail, Giant plant response rating [9, 15]: 10
- Plant response rating, Foxtail, Giant [9, 16]: 15
- Plant response rating, Foxtail, Giant [9, 17]: 10
- Plant response rating, Foxtail, Giant [9, 18]: 10
- Crabgrass, Large plant response rating [10, 20]: 80

SMILES: CCOc1cc(C(=O)NCC(F)(F)F)nn1Cc1cc(C(F)(F)F)nn1C [Compound 140]
- Plant response rating, Pigweed [11, 21]: 80
- Plant response rating, Pigweed [11, 22]: 100
- Plant response rating, Pigweed [11, 23]: 100
- Pigweed plant response rating [11, 24]: 100
- Foxtail, Giant plant response rating [2, 25]: 100
- Foxtail, Giant plant response rating [2, 26]: 100
- Corn plant response rating [3, 27]: 80
- Corn plant response rating [3, 28]: 50
- Plant response rating, Johnsongrass [12, 21]: 20
- Plant response rating, Johnsongrass [12, 22]: 5
- Plant response rating, Johnsongrass [12, 23]: 5
- Johnsongrass plant response rating [12, 24]: 25
- Pigweed plant response rating [6, 25]: 100
- Pigweed plant response rating [6, 26]: 100
- Plant response rating, Blackgrass [13, 21]: 0
- Plant response rating, Blackgrass [13, 22]: 0
- Plant response rating, Blackgrass [13, 23]: 5
- Blackgrass plant response rating [13, 24]: 50
- Crabgrass, Large plant response rating [10, 27]: 90
- Crabgrass, Large plant response rating [10, 28]: 70
- Plant response rating, Galium [14, 21]: 50
- Plant response rating, Galium [14, 22]: 60
- Plant response rating, Galium [14, 23]: 98
- Galium plant response rating [14, 24]: 100

SMILES: O=C(NCC(F)(F)F)c1cc(CCF)n(Cc2ccnc(C(F)(F)F)c2)n1 [Compound 175]
- Pigweed plant response rating [11, 24]: 100
- Pigweed plant response rating [11, 29]: 100
- Plant response rating, Pigweed [11, 30]: 100
- Pigweed plant response rating [11, 31]: 100
- Foxtail, Giant plant response rating (0 to 100 scale) ([2]; preemergence, 125 g ai/ha): 100
- Foxtail, Giant plant response rating [2, 26]: 100
- Corn plant response rating [3, 27]: 90
- Corn plant response rating [3, 28]: 60
- Johnsongrass plant response rating [12, 24]: 0
- Johnsongrass plant response rating [12, 29]: 35
- Plant response rating, Johnsongrass [12, 30]: 70
- Johnsongrass plant response rating [12, 31]: 100
- Pigweed plant response rating (0 to 100 scale) ([6]; preemergence, 125 g ai/ha): 100
- Pigweed plant response rating [6, 26]: 100
- Blackgrass plant response rating [13, 24]: 30
- Blackgrass plant response rating [13, 29]: 90
- Plant response rating, Blackgrass [13, 30]: 90
- Blackgrass plant response rating [13, 31]: 90
- Crabgrass, Large plant response rating [10, 27]: 90
- Crabgrass, Large plant response rating [10, 28]: 90
- Galium plant response rating [14, 24]: 85
- Galium plant response rating [14, 29]: 100
- Plant response rating, Galium [14, 30]: 100
- Galium plant response rating [14, 31]: 100

SMILES: O=C(NC1CC1)c1cc(CCF)n(Cc2ccnc(C(F)(F)F)c2)n1 [Compound 176]
- Pigweed plant response rating [11, 24]: 100
- Pigweed plant response rating [11, 29]: 100
- Plant response rating, Pigweed [11, 30]: 100
- Pigweed plant response rating [11, 31]: 100
- Foxtail, Giant plant response rating (0 to 100 scale) ([2]; preemergence, 125 g ai/ha): 90
- Foxtail, Giant plant response rating [2, 26]: 100
- Corn plant response rating [3, 27]: 80
- Corn plant response rating [3, 28]: 40
- Johnsongrass plant response rating [12, 24]: 0
- Johnsongrass plant response rating [12, 29]: 20
- Plant response rating, Johnsongrass [12, 30]: 65
- Johnsongrass plant response rating [12, 31]: 85
- Pigweed plant response rating (0 to 100 scale) ([6]; preemergence, 125 g ai/ha): 100
- Pigweed plant response rating [6, 26]: 100
- Blackgrass plant response rating [13, 24]: 5
- Blackgrass plant response rating [13, 29]: 5
- Plant response rating, Blackgrass [13, 30]: 90
- Blackgrass plant response rating [13, 31]: 90
- Crabgrass, Large plant response rating [10, 27]: 90
- Crabgrass, Large plant response rating [10, 28]: 80
- Galium plant response rating [14, 24]: 85
- Galium plant response rating [14, 29]: 85
- Plant response rating, Galium [14, 30]: 98
- Galium plant response rating [14, 31]: 100

SMILES: CCNC(=O)c1cc(CCF)n(Cc2ccnc(C(F)(F)F)c2)n1 [Compound 178]
- Plant response rating, Pigweed [11, 23]: 45
- Pigweed plant response rating [11, 24]: 100
- Pigweed plant response rating [11, 29]: 100
- Plant response rating, Pigweed [11, 30]: 100
- Foxtail, Giant plant response rating (0 to 100 scale) ([2]; preemergence, 125 g ai/ha): 90
- Foxtail, Giant plant response rating [2, 26]: 100
- Corn plant response rating [3, 27]: 90
- Corn plant response rating [3, 28]: 10
- Plant response rating, Johnsongrass [12, 23]: 0
- Johnsongrass plant response rating [12, 24]: 0
- Johnsongrass plant response rating [12, 29]: 5
- Plant response rating, Johnsongrass [12, 30]: 25
- Pigweed plant response rating (0 to 100 scale) ([6]; preemergence, 125 g ai/ha): 100
- Pigweed plant response rating [6, 26]: 100
- Plant response rating, Blackgrass [13, 23]: 0
- Blackgrass plant response rating [13, 24]: 5
- Blackgrass plant response rating [13, 29]: 30
- Plant response rating, Blackgrass [13, 30]: 85
- Crabgrass, Large plant response rating [10, 27]: 90
- Crabgrass, Large plant response rating [10, 28]: 80
- Plant response rating, Galium [14, 23]: 70
- Galium plant response rating [14, 24]: 90
- Galium plant response rating [14, 29]: 90
- Plant response rating, Galium [14, 30]: 95

SMILES: CCCc1cc(C(=O)NOC(C)C)nn1Cc1cc(C(F)(F)F)nn1C [Compound 203]
- Pigweed plant response rating [11, 24]: 100
- Pigweed plant response rating [11, 29]: 100
- Plant response rating, Pigweed [11, 30]: 100
- Pigweed plant response rating [11, 31]: 100
- Foxtail, Giant plant response rating (0 to 100 scale) ([2]; preemergence, 125 g ai/ha): 80
- Foxtail, Giant plant response rating [2, 26]: 100
- Corn plant response rating [3, 27]: 100
- Corn plant response rating [3, 28]: 50
- Johnsongrass plant response rating [12, 24]: 0
- Johnsongrass plant response rating [12, 29]: 0
- Plant response rating, Johnsongrass [12, 30]: 40
- Johnsongrass plant response rating [12, 31]: 55
- Pigweed plant response rating (0 to 100 scale) ([6]; preemergence, 125 g ai/ha): 100
- Blackgrass plant response rating [13, 24]: 30
- Blackgrass plant response rating [13, 29]: 50
- Plant response rating, Blackgrass [13, 30]: 85
- Blackgrass plant response rating [13, 31]: 90
- Crabgrass, Large plant response rating [10, 27]: 90
- Crabgrass, Large plant response rating [10, 28]: 70
- Galium plant response rating [14, 24]: 100
- Galium plant response rating [14, 29]: 100
- Plant response rating, Galium [14, 30]: 100
- Galium plant response rating [14, 31]: 100
